Reference: patent US9802884B2, “Mixtures of MGDA enantiomers, and process for making such mixtures” (BASF SE, priority 2013, dated 2017)
Read-outs that look alike come from different tables or passages of the source.

Columns and labels:
[1] = minimum temperature for forming a kinetically stable 50% by weight solution, cooled 30° C./h to precipitation, reheated 1° C./h until clear, higher Tsol = lower solubility
Procedure: In each case, the solubility was calculated to refer to pure MGDA, without hydrate water. The solubility of inventive mixtures and of comparison experiments was determined with an apparatus that allowed heating and cooling down liquid solutions. […] Then, the slurry of crystals of MGDA so obtained was again heated at a speed of 1° C./h until a clear solution was obtained. The slurry/solution was checked for solid particles by visible light scattering detection. […] A higher temperature Tsol correlates with a lower solubility at ambient temperature.

[2] = ambient temperature
Procedure: The following tolerance tests were performed: 25 g of a 40% by weight aqueous solution of the respective inventive mixture (or of racemic MGDA) were mixed under one hour of stirring with the amount of solid NaOH beads according to table 5. The mixture so obtained was stored at ambient temperature over the period of up to 96 hours. Then, the appearance was characterized by visual inspection.

[3] = aqueous solution, room temperature; cited from earlier work
[4] = NaOH added 0 g to 25 g of 40% by weight aqueous solution
[5] = NaOH added 0.5 g to 25 g of 40% by weight aqueous solution
[6] = NaOH added 1.0 g to 25 g of 40% by weight aqueous solution
[7] = NaOH added 1.5 g to 25 g of 40% by weight aqueous solution, * = after 48 hours
[8] = NaOH added 2.0 g to 25 g of 40% by weight aqueous solution, * = after 48 hours
[9] = NaOH added 2.5 g to 25 g of 40% by weight aqueous solution, ** = immediately after addition of NaOH

Structure (SMILES) | Appearance of test solutions after 96 h of storage [2, 4] | Appearance of test solutions after 96 h of storage [2, 5] | Appearance of test solutions after 96 h of storage [2, 6] | Appearance of test solutions after 96 h of storage [2, 7] | Appearance of test solutions after 96 h of storage [2, 8] | Appearance of test solutions after 96 h of storage [2, 9] | also measured
CC(C(=O)[O-])N(CC(=O)[O-])CC(=O)[O-].[Na+].[Na+].[Na+] (stereo not shown) [ee value 20.0, methyl glycine diacetic acid (MGDA)] |  |  |  |  |  |  | Tsol ([1]; listed as 20.0): 74.0 °C
CC(C(=O)[O-])N(CC(=O)[O-])CC(=O)[O-].[Na+].[Na+].[Na+] (stereo not shown) [ee value 10.1, methyl glycine diacetic acid (MGDA)] |  |  |  |  |  |  | Tsol ([1]; listed as 10.1): 74.5 °C
CC(C(=O)[O-])N(CC(=O)[O-])CC(=O)[O-].[Na+].[Na+].[Na+] (stereo not shown) [ee value 70.0, methyl glycine diacetic acid (MGDA)] |  |  |  |  |  |  | Tsol ([1]; listed as 70.0): 59.5 °C
CC(C(=O)[O-])N(CC(=O)[O-])CC(=O)[O-].[Na+].[Na+].[Na+] (racemic) [Racemic MGDA, methyl glycine diacetic acid (MGDA), reference compound] | clear liquid | clear liquid | clear liquid | turbid* liquid | turbid* liquid | turbid, precipitate** | Tsol ([1]; listed as zero): 103.8 °C; concentration of solution that can be made and stored [3]: about 40 % by weight
CC(C(=O)[O-])N(CC(=O)[O-])CC(=O)[O-].[Na+].[Na+].[Na+] (stereo not shown) [ee value 97.7, methyl glycine diacetic acid (MGDA), reference compound] |  |  |  |  |  |  | Tsol ([1]; listed as 97.7): 37.0 °C
CC(C(=O)[O-])N(CC(=O)[O-])CC(=O)[O-].[Na+].[Na+].[Na+] (stereo not shown) [MGDA: 50% ee, methyl glycine diacetic acid (MGDA)] | clear liquid | clear liquid | clear liquid | clear liquid | clear liquid | clear liquid | Tsol ([1]; listed as 50.0): 68.1 °C
